Reference: ChEMBL document CHEMBL4477208, “Discovery and Rational Design of Pteridin-7(8H)-one-Based Inhibitors Targeting FMS-like Tyrosine Kinase 3 (FLT3) and Its Mutants” (J Med Chem, 2016)

Key:
[1] = target: T1, Receptor-type tyrosine-protein kinase FLT3 (Homo sapiens, UniProt P36888); test: Binding affinity to human partial length wild type FLT3 (592 to 969 residues) expressed in bacterial expression system after 1 hr
T1 sequence (P36888 whole entry): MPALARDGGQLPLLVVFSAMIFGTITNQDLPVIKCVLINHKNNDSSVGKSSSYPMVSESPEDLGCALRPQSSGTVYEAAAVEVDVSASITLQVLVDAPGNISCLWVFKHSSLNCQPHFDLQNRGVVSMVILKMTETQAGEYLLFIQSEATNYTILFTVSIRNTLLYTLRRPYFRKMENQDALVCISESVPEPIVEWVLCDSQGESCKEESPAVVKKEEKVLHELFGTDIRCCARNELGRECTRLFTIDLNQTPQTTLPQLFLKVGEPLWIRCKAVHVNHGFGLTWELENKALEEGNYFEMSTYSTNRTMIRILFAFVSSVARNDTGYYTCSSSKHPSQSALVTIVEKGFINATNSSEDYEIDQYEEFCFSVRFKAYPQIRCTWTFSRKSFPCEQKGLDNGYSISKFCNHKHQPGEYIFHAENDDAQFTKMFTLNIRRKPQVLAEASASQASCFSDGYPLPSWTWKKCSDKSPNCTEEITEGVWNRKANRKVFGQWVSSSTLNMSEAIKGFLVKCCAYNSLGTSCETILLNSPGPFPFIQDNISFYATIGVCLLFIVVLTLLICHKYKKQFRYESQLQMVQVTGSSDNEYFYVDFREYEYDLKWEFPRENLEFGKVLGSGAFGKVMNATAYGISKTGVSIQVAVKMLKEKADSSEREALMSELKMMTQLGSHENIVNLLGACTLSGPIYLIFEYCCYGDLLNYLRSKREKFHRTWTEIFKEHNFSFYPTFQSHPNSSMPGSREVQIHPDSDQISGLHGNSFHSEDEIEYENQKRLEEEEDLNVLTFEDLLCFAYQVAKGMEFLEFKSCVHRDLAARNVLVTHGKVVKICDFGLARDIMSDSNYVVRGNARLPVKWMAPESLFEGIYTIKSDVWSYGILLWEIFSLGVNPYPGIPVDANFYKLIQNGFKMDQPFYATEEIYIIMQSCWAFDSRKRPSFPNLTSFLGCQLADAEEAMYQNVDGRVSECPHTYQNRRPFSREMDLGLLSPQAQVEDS

MV4-11 [2] = test: Cell cycle arrest in human MV4-11 cells assessed as accumulation at G2 phase at 10 nM after 48 hrs by PI/RNase staining based FACS analysis (reference value: 13.95%); type: functional
MV4-11 [3] = test: Antitumor activity against human MV4-11 cells xenografted in nude BALB/c mouse assessed as tumor growth inhibition at 25 mg/kg, po qd for 14 days measured every 2 days; type: functional; settings: MV4-11, po, read-out: TGI
[4] = Tmax in overnight fasted Sprague-Dawley rat plasma at 10 mg/kg administered via oral gavage up to 24 hrs by LC-MS/MS analysis; type: ADME, organism-based
MV4-11 [5] = test: Antitumor activity against human MV4-11 cells xenografted in nude BALB/c mouse assessed as tumor growth inhibition at 50 mg/kg, po qd for 14 days measured every 2 days; type: functional; settings: MV4-11, po, read-out: TGI
[6] = Half life in overnight fasted Sprague-Dawley rat plasma at 1 mg/kg, iv up to 24 hrs by LC-MS/MS analysis; type: ADME, organism-based
SW-620 = test: Antiproliferative activity against human SW620 cells after 72 hrs by SRB assay; type: functional, cell-based; settings: SW-620, 72 h
MV4-11 [7] = test: Induction of apoptosis in human MV4-11 cells assessed as viable cells at 10000 nM after 48 hrs by annexin V/propidium iodide staining based FACS analysis (reference value: 90.60%); type: functional; settings: MV4-11, 48 h, read-out: Activity
MV4-11 [8] = test: Induction of apoptosis in human MV4-11 cells assessed as necrotic cells at 10000 nM after 48 hrs by annexin V/propidium iodide staining based FACS analysis (reference value: 0.05%); type: functional
MV4-11 [9] = test: Induction of apoptosis in human MV4-11 cells assessed as early apoptotic cells at 1 nM after 48 hrs by annexin V/propidium iodide staining based FACS analysis (reference value: 6.31%); type: functional
MV4-11 [10] = test: Cell cycle arrest in human MV4-11 cells assessed as accumulation at G0/G1 phase at 1000 nM after 48 hrs by PI/RNase staining based FACS analysis (reference value: 69.55%); type: functional
MV4-11 [11] = test: Induction of apoptosis in human MV4-11 cells assessed as viable cells at 10 nM after 48 hrs by annexin V/propidium iodide staining based FACS analysis (reference value: 90.60%); type: functional; settings: MV4-11, 48 h, read-out: Activity
[12] = system: Receptor-type tyrosine-protein kinase FLT3 (Homo sapiens), P36888 [D835V]; test: Inhibition of human FLT3 D835V mutant expressed in mammalian system assessed as remaining enzyme activity at 1 uM relative to untreated control
MV4-11 [13] = test: Cell cycle arrest in human MV4-11 cells assessed as cell debris level at 1000 nM after 48 hrs by PI/RNase staining based FACS analysis; type: functional
MV4-11 [14] = test: Antitumor activity against human MV4-11 cells xenografted in nude BALB/c mouse assessed as tumor growth inhibition at 25 mg/kg, ip qd for 14 days measured every 2 days; type: functional; settings: MV4-11, ip, read-out: TGI
HCT-116 = test: Antiproliferative activity against human HCT116 cells after 72 hrs by SRB assay; type: functional, cell-based; settings: HCT-116, 72 h
MV4-11 [15] = test: Cell cycle arrest in human MV4-11 cells assessed as cell debris level at 100 nM after 48 hrs by PI/RNase staining based FACS analysis; type: functional
[16] = Ratio of IC50 for human WI38 cells to IC50 for human MV4-11 cells; type: toxicity; settings: WI38 cells versus MV4-11 cells, read-out: Ratio IC50
[17] = target: Receptor-type tyrosine-protein kinase FLT3 (Homo sapiens, UniProt P36888, F691L/ITD); test: Binding affinity to human partial length FLT3 ITD/F691L mutant expressed in mammalian expression system after 1 hr
[18] = system: Receptor-type tyrosine-protein kinase FLT3 (Homo sapiens), P36888 [UNDEFINED MUTATION]; test: Inhibition of human FLT3 ITD/D835V mutant expressed in mammalian system assessed as remaining enzyme activity at 1 uM relative to untreated control
[19] = target: Macrophage colony-stimulating factor 1 receptor (Homo sapiens) (UniProt P07333); test: Inhibition of human CSF1R expressed in bacterial system assessed as remaining enzyme activity at 1 uM relative to untreated control
[20] = target: Receptor-type tyrosine-protein kinase FLT3 (Homo sapiens, UniProt P36888, D835V); test: Binding affinity to human partial length FLT3 D835V mutant (592 to 969 residues) expressed in mammalian expression system after 1 hr
MV4-11 [21] = test: Induction of apoptosis in human MV4-11 cells assessed as necrotic cells at 100 nM after 48 hrs by annexin V/propidium iodide staining based FACS analysis (reference value: 0.05%); type: functional
MV4-11 [22] = test: cells; settings: Homo sapiens, MV4-11, 72 h
Description: Antiproliferative activity against human MV4-11 cells harboring FLT3-ITD mutant after 72 hrs by MTT assay

K562 = test: cells; settings: Homo sapiens, K562, 72 h
Description: Antiproliferative activity against FLT3-deficient human K562 cells after 72 hrs by MTT assay

Macrophage colony-stimulating factor 1 receptor (Homo sapiens), sequence (P07333 whole entry, the tested form may be a part): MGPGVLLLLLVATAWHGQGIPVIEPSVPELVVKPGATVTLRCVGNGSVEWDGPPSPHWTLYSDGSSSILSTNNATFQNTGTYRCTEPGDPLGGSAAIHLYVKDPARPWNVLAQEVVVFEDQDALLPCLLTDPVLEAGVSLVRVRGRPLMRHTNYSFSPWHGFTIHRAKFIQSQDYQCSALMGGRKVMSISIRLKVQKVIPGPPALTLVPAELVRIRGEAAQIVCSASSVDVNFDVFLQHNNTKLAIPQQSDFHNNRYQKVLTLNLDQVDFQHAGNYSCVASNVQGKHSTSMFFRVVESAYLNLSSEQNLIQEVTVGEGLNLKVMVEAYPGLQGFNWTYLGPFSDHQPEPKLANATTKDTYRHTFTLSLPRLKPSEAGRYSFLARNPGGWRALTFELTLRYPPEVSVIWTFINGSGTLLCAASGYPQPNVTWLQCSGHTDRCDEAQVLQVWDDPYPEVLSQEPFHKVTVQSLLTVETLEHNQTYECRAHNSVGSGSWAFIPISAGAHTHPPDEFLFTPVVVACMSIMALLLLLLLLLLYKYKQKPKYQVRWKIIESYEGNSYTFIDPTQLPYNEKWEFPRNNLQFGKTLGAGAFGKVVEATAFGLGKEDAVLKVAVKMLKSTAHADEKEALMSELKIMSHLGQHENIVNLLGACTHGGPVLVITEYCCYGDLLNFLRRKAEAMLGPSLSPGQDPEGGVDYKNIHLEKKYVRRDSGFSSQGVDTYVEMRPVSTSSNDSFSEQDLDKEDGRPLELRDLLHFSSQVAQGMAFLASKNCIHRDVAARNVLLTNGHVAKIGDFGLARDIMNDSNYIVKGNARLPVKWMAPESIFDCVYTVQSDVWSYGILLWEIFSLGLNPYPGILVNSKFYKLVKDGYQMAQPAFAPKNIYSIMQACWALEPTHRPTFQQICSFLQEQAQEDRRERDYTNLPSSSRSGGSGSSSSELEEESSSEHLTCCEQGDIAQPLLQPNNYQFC

Cc1cc(Nc2ncc3ncc(=O)n(-c4ccc(N)cc4)c3n2)ccc1N1CCN(C)CC1
Kd [1]: 5 nM
Activity (MV4-11 [2]): 11.4%
inhibition in vivo at 25 mg/kg (MV4-11 [3]): 87%
Tmax [4]: 2.17 h
inhibition in vivo at 50 mg/kg (MV4-11 [5]): 128%
half-life [6]: 3.11 h
IC50 (SW-620): 2530 nM
viability at 10 µM (MV4-11 [7]): 0.02%
Activity (MV4-11 [8]): 0.02%
Activity (MV4-11 [9]): 6.09%
Activity (MV4-11 [10]): 80.55%
viability at 0.01 µM (MV4-11 [11]): 86.9%
Activity [12]: < 1%
Activity (MV4-11 [13]): 16.38%
inhibition in vivo at 25 mg/kg (MV4-11 [14]): 129%
IC50 (HCT-116): 2360 nM
Activity (MV4-11 [15]): 12.02%
selectivity ratio [16]: 33 to 81
Kd [17]: 5.7 nM
Activity [18]: < 1%
Activity [19]: < 1%
Kd [20]: 0.25 nM
Activity (MV4-11 [21]): 0.25%
IC50 (MV4-11 [22]): 51 nM
IC50 (K562): > 10000 nM
